Patent US11511054B2, “Use of antistatic materials in the airway for thermal aerosol condensation process” (Alexza Pharmaceuticals, Inc., priority 2015, dated 2022)

What was measured:
[1] = Net charge measurement of thermal condensation aerosol (aerosol electrometer, Staccato single dose); format: physicochemical; details: for Total net charge of aerosol particles (in words): standard housing
[2] = Airway deposition and aerosol charges of normal, metallized and Permastat Plus airways (Example 40); format: physicochemical; details: 28.3 LPM
Description: Purpose • To compare aerosol charge and airway deposition of various airways: normal airway, Metallizedairway(SS*/Cu/Cu/SS), and Permastat Plus airway.

[3] = Aerosol charge testing with heat packages, screening foils and funnels (Examples 2-3, 12); details: for Aerosol charge relative to Alprazolam: Example 2, aerosol electrometer
[4] = Total net charge vs. airway housing deposition, standard vs anti-static polycarbonate housing; details: for Net Charge: mean ± SD, N-4
Description: Alprazolam device versions were tested in this part of the study. The first version (used in Part 1) used an airway housing made of polycarbonate with a surface resistivity of—1×10 18 0/sq. The second version used an airway housing made of a lower resistivity polycarbonate (−1×1011 0/sq) to provide charge dissipation.

[5] = Airway deposition and aerosol charges for Permastat, Permastat Plus and standard airway material (Example 38); details: 1 mg, 28.3 LPM, mean of 4 devices
Description: Purpose: • To find out the aerosol charge generated from Permastat and Permastat Plus airways and to compare that to normal airway (control)
Materials/Equipment • Standard airway material: makrolon polycarbonate • Permastat: surface resistivity ˜1E11 ohm/sq • Permastat Plus: surface resistivity ˜1E9 ohm/sq • Drug: alprazolam

[6] = no applied potential to airway housing, mean ± SD

## Cc1nnc2n1-c1ccc(Cl)cc1C(c1ccccc1)=NC2 [Alprazolam]
[1]; [6]
  Net Charge: −252 ± 59 pC/mg
[1]
  Total net charge of aerosol particles (in words): relatively large net negative charge
[1]; listed as ALP
  Total net charge of aerosol particles (in words): net negatively charged
[1]; listed as alprazolam
  Total net charge of aerosol particles (in words): substantial
[2]; Metallized airway, ESD gun 16 kV+
  Ave Aerosol Charge: −111.63 pC
[2]; Metallized airway, no ESD gun
  Ave Aerosol Charge: −181.57 pC
[2]; Normal airway, ESD gun 16 kV+
  Ave Aerosol Charge: −220.405 pC
[2]; Normal airway, no ESD gun
  Ave Aerosol Charge: −220.645 pC
[2]; Permastat Plus airway, ESD gun 16 kV+
  Ave Aerosol Charge: −21.895 pC
[2]; Permastat Plus airway, no ESD gun
  Ave Aerosol Charge: −16.57 pC
[3]; Staccato heat packages with Staticide
  Aerosol charge (in words): small and negative
[3]; Staccato heat packages without Staticide
  Aerosol charge (in words): large and negative
[3]; partially Staticide-coated airway
  Aerosol charge polarity: positive polarity
[4]; anti-static polycarbonate airway housing
  Net Charge: −2.2 ± 1
[4]; anti-static vs standard housing
  Total net charge, anti-static housing relative to standard housing (fold less): 100 fold
[4]; standard polycarbonate airway housing
  Net Charge: −279 ± 45
[5]; Permastat Plus airway
  Mean charge/mass: −2.2 pC/mg
[5]; Permastat airway
  Mean charge/mass: −46.2 pC/mg
[5]; control (normal) airway
  Mean charge/mass: −279.2 pC/mg

## CCCCNc1cc(C(=O)O)cc(S(N)(=O)=O)c1Oc1ccccc1 [Bumetanide]
[3]
  Aerosol charge relative to Alprazolam: about one order of magnitude lower

## CN1C(=O)CC(=O)N(c2ccccc2)c2cc(Cl)ccc21 [Clobazam]
[1]; [6]
  Net Charge: 0 ± 0 pC/mg

## CN1C(=O)CN=C(c2ccccc2)c2cc(Cl)ccc21 [Diazepam]
[1]; [6]
  Net Charge: −1 ± 1 pC/mg

## Clc1ccc2c(c1)C(c1ccccc1)=NCc1nncn1-2 [Estazolam]
[1]; [6]
  Net Charge: −202 ± 3 pC/mg
[1]
  Total net charge of aerosol particles (in words): substantial

## CN1CCN(CCCN2c3ccccc3Sc3ccc(Cl)cc32)CC1 [Prochlorperazine]
[1]; [6]
  Net Charge: 27 ± 3 pC/mg
[3]
  Aerosol charge relative to Alprazolam: about one order of magnitude lower

## Cc1nnc2n1-c1ccc(Cl)cc1C(c1ccccc1Cl)=NC2 [Triazolam]
[1]; [6]
  Net Charge: −158 ± 13 pC/mg
[1]
  Total net charge of aerosol particles (in words): substantial

## CCN(C(C)=O)c1cccc(-c2ccnc3c(C#N)cnn23)c1 [Zaleplon]
[1]; +16 kV applied to airway housing
  Net Charge: −15 ± 6 pC/mg
[1]; [6]
  Net Charge: 7 ± 1 pC/mg
[1]; −16 kV applied to airway housing
  Net Charge: 2 ± 8 pC/mg
[3]; Example 3
  Degree of aerosol charge (in words): low degree of charge
